{"source": "patent US8101389B2", "about": "“Bacterial glutamine synthetases and methods of use” (Athenix Corp, priority 2006, dated 2012)", "key": {"[1]": {"test_system": "pea leaf glutamine synthetase", "settings": "Leason et al. (1982); cited from earlier work"}, "[2]": {"test_system": "E. coli cells with AGS1 variant AGS1m2 (pAX3422), F81S, P185S, G218S, I303N, SEQ ID NO:6", "test": "growth of E. coli on herbicide plates, ags1m2", "type": "cell-based", "settings": "50 mM glyphosate; than the other variants, except AGS1m16", "procedure": "(§1) Mutants of the bacterial glutamine synthetase gene ags1 (SEQ ID NO:1) were created by error-prone mutagenesis using the GENEMORPH® Random Mutagenesis kit, and also using oligo-directed mutagenesis as known in the art. However, many methods are available for creating libraries of mutants. The resulting mutants were cloned into a pUC19 vector, electroporated into either XL-1 or DH5 alpha E. coli cells, and selected for growth on M63+ agar media containing antibiotic and 2, 10, or 20 mM glufosinate. Twenty-two clones were identified as growing on 20 mM glufosinate, and picked for further analysis.\nags1m2 was mutagenized by error-prone mutagenesis using GENEMORPH® II Random Mutagenesis kit (Stratagene) according to manufacturer's instructions. Mutagenized PCR product was digested with Sac I and Hind III, and ligated into a pUC vector, similarly digested with Sac I and Hind III. Ligations were transformed into E. coli cells, and plated onto M63+ plates containing antibiotic, and 125 mM glufosinate. Clones growing on 125 mM glufosinate plates were retested on 200 mM glufosinate plates, and compared to similar platings of ags1m1 and ags1m2. […] The DNA sequence of the ags open reading frame in pAX3439 was sequenced, and the gene designated as ags1m16. The DNA sequence of ags1m16 is represented herein as SEQ ID NO:31, and the amino acid sequence is represented herein as SEQ ID NO:32. […]"}, "[3]": {"test_system": "E. coli cells with AGS1 variant AGS1m4 (pAX3428), A151T, V214M, S276Y, SEQ ID NO:10", "test": "growth of E. coli on herbicide plates, ags1m4", "type": "cell-based", "settings": "than the other variants, except AGS1m16", "excerpt": "Mutants of the bacterial glutamine synthetase gene ags1 (SEQ ID NO:1) were created by error-prone mutagenesis using the GENEMORPH® Random Mutagenesis kit, and also using oligo-directed mutagenesis as known in the art. However, many methods are available for creating libraries of mutants. […]"}, "N[C@@H](CCC(=O)O)C(=O)O [4]": {"test_system": "N[C@@H](CCC(=O)O)C(=O)O", "test": "enzymatic assay, kinetics of wild-type AGS1", "type": "biochemical, Serratia marcescens", "settings": "other: Table 4", "excerpt": "(§2) ags1m1 (pAX3421) and ags1m2 (pAX3422) were subcloned into E. coli expression vector pRSF1B (Invitrogen) so as to create an N-terminus encoding a 6Xhis tag, purified and characterized kinetically.\n(§3) ags1m21 (SEQ ID NO:41) encodes the AGS1m21 protein (SEQ ID NO:42). AGS1m21 is a variant of AGS1 that contains a similar amino acid change identified in other variants (V214M), as well as two novel mutations (N160S and G167R). This enzyme was expressed in E. coli, purified, and the kinetic values Km(glutamate) and Ki(glufosinate) of the variant measured by enzymatic assay.\n(§4) The unmodified enzyme (AGS1) was compared to AGS1(AD-) and AGS1m17(AD-) by carrying out enzymatic assays on both enzymes following purification from E. coli. A glutamine synthetase enzyme from E. coli (GlnA) was also tested."}, "N[C@@H](CCC(=O)O)C(=O)O [5]": {"test_system": "N[C@@H](CCC(=O)O)C(=O)O", "test": "enzymatic assay, kinetics of AGS1(AD-)", "type": "biochemical, Serratia marcescens", "settings": "other: Table 5", "procedure": "ags1(ad-) (SEQ ID NO:43) encoding the AGS1(AD-) protein (SEQ ID NO:44), is a variant of ags1 in which the putative adenylylation site has been removed by mutating the tyrosine at position 398 of AGS1 to a phenylalanine by site directed mutagenesis.\nas §4"}, "N[C@@H](CCC(=O)O)C(=O)O [6]": {"test_system": "N[C@@H](CCC(=O)O)C(=O)O", "test": "enzymatic assay, kinetics of AGS1m17(AD-)", "type": "biochemical, Serratia marcescens", "settings": "other: Table 5", "procedure": "ags1m17(ad-) (SEQ ID NO:45) encoding the AGS1m17(AD-) protein (SEQ ID NO:46), is a variant of ags1m17 in which the putative adenylylation site has been removed by mutating the tyrosine at position 398 of AGS1 to a phenylalanine by site directed mutagenesis.\nas §4"}, "N[C@@H](CCC(=O)O)C(=O)O [7]": {"test_system": "N[C@@H](CCC(=O)O)C(=O)O", "test": "enzymatic assay, kinetics of AGS1m21", "type": "biochemical, Serratia marcescens", "settings": "other: Table 4", "excerpt": "as §3"}, "E. coli cells [8]": {"test_system": "E. coli cells", "test": "Growth of E. coli transformants on M63 plates containing glufosinate", "type": "cell-based", "settings": "for growth on glufosinate minimal M63+ agar media: 2, 10, 20, 50 and 100 mM glufosinate, DH5a E. coli cells", "procedure": "To reconfirm that TKH2 and TKH3 confer resistance to 20 mM glufosinate, the purified plasmids were retransformed into DH5α cells. pUC18 was retransformed as a negative control. The transformation mixes were plated directly on M63 minimal plates with or without 20 mM glufosinate.\nas §1\nags1m2 was mutagenized by error-prone mutagenesis using GENEMORPH® II Random Mutagenesis kit (Stratagene) according to manufacturer's instructions. Mutagenized PCR product was digested with Sac I and Hind III, and ligated into a pUC vector, similarly digested with Sac I and Hind III. Ligations were transformed into E. coli cells, and plated onto M63+ plates containing antibiotic, and 125 mM glufosinate. Clones growing on 125 mM glufosinate plates were retested on 200 mM glufosinate plates, and compared to similar platings of ags1m1 and ags1m2. […] The DNA sequence of the ags open reading frame in pAX3439 was sequenced, and the gene designated as ags1m16. The DNA sequence of ags1m16 is represented herein as SEQ ID NO:31, and the amino acid sequence is represented herein as SEQ ID NO:32. AGS1m16 differs from AGS1m2 at a single amino acid at position H212 of the protein, which is modified from Histidine (‘H’) to Asparagine (‘N’), and contains a total of five amino acid changes relative to the wild-type AGS1 (see FIG. 1 and Table 3).\nClones expressing AGS1m17, AGS1m18, AGS1m19, or AGS1m20 were all found to be able to grow on plates containing 375 mM glufosinate, whereas no growth of clones expressing AGS1m16 was observed on plates containing 375 mM glufosinate."}, "[9]": {"test_system": "ags1 glutamine synthetase enzyme", "test": "Enzymatic activity of purified 6Xhis-tagged glutamine synthetases with and without glufosinate", "type": "biochemical, Serratia marcescens", "settings": "for enzymatic activity compared with wild type AGS1: 5 minute assay, absence of glufosinate", "excerpt": "as §2"}, "ags1 mutant E. coli": {"test_system": "ags1 mutant E. coli", "test": "Complementation of a glutamine synthase mutant", "type": "cell-based", "excerpt": "Clones containing ags1m1 (pAX3421) and ags1m2 (pAX3422) were selected for further work."}, "E. coli cells [10]": {"test_system": "E. coli cells", "test": "Growth of E. coli transformants on M63 plates containing glufosinate", "type": "cell-based", "settings": "50 mM glyphosate (so in the source); versus the other variants except AGS1m16"}, "maize": {"test_system": "maize", "test": "Leaf protein content of T0 transgenic maize plants (Bradford assay)", "type": "in vivo", "excerpt": "synags1m16 (SEQ ID NO:47) is an alternate DNA sequence that encodes the AGS1m16 protein (SEQ ID NO:32). synags1m16 was cloned into a shuttle vector to guide overexpression of AGS1m16 in maize. The vector places overexpression of synags1m16 under the control of the Trp5 promoter (U.S. application Ser. No. 11/377,318, filed Mar. 16, 2006 and herein incorporated by reference in its entirety).\nNine transgenic maize plants containing ags1m16 were generated. Protein expression of the AGS1m16 protein was confirmed by Western blot for each of these events.\nNitrogen use efficiency was evaluated for these events by determining the protein content of leaf samples isolated from the T0 plants after four weeks of growth in the greenhouse.\nThe protein in leaf samples was quantified as follows: Fifty milligrams of leaf material (fresh weight, no midrib) were freeze-dried for dry weight determination. The dehydrated leaf tissue was then ground in the presence of fresh Milli Q water using a MiniBeadbeater-96™ and 2.3 mm stainless-steel beads. The ground leaf tissue was filtered through a 0.45 μm Polyvinylidene Fluoride (PVDF) filter. Bio-Rad Protein Dye was added to leaf samples diluted in water, and a Bradford protein assay was performed and read in the spectrophotometer at 595 nm vs. internal protein standards included in the assay. […]"}}, "data": [{"compound": "CS(=N)(=O)CCC(N)C(=O)O", "note": "(stereo not drawn) [Methione sulfoximine (MSO), Methione sulfoximine]", "values": [{"measurement": "inhibition of pea leaf glutamine synthetase", "setting": "[1]", "value": "mixed competitive inhibitor"}]}, {"compound": "O=C(O)CNCP(=O)(O)O", "note": "[glyphosate]", "values": [{"measurement": "colony growth on 50 mM glyphosate versus other variants", "setting": "[2]", "value": "grow more quickly"}, {"measurement": "colony growth on 50 mM glyphosate versus other variants", "setting": "[3]", "value": "grow more quickly"}]}, {"compound": "Serratia marcescens ATX 20345 glutamine synthetase AGS1, wild type, SEQ ID NO:2 (Serratia marcescens)", "values": [{"measurement": "Km", "setting": "N[C@@H](CCC(=O)O)C(=O)O [4]", "value": 3.4, "unit": "mM"}, {"measurement": "Vmax", "setting": "N[C@@H](CCC(=O)O)C(=O)O [4]", "value": 0.10, "unit": "nmol/min/µg"}, {"measurement": "kcat", "setting": "N[C@@H](CCC(=O)O)C(=O)O [4]", "value": 0.08, "unit": "s⁻¹"}]}, {"compound": "Serratia marcescens glutamine synthetase AGS1 variant AGS1(AD-), tyrosine 398 to phenylalanine, SEQ ID NO:44 (Serratia marcescens; Y398F)", "values": [{"measurement": "Km", "setting": "N[C@@H](CCC(=O)O)C(=O)O [5]", "value": 3.4, "unit": "mM"}]}, {"compound": "Serratia marcescens glutamine synthetase AGS1 variant AGS1m17(AD-), F81S, P185S, H212T, V214A, G218S, I303N plus tyrosine 398 to phenylalanine, SEQ ID NO:46 (Serratia marcescens; F81S/G218S/H212T/I303N/P185S/V214A/Y398F)", "values": [{"measurement": "Km", "setting": "N[C@@H](CCC(=O)O)C(=O)O [6]", "value": 14.1, "unit": "mM"}]}, {"compound": "Serratia marcescens glutamine synthetase AGS1 variant AGS1m21, N160S, G167R, V214M, SEQ ID NO:42 (Serratia marcescens; G167R/N160S/V214M)", "values": [{"measurement": "Km", "setting": "N[C@@H](CCC(=O)O)C(=O)O [7]", "value": 12.0, "unit": "mM"}]}, {"compound": "ags1m1: glufosinate resistant ags1 variant V39I, V214M; SEQ ID NO:3/4", "values": [{"measurement": "growth on glufosinate minimal M63+ agar media", "setting": "E. coli cells [8]", "value": "grow on 2, 10, 20, 50, and 100 mM glufosinate"}, {"measurement": "enzymatic activity compared with wild type AGS1", "setting": "[9]", "value": "indistinguishable from wild type enzyme"}, {"measurement": "complementation of ags1 mutant E. coli", "setting": "ags1 mutant E. coli", "value": "complement ags1 mutant E. coli"}, {"measurement": "growth rate in complementation of ags1 mutant E. coli", "setting": "ags1 mutant E. coli; comparison of ags1m1 with ags1m2", "value": "growing at a faster rate than ags1m2"}]}, {"compound": "ags1m2: ags1 variant F81S, P185S, G218S, I303N; SEQ ID NO:5/6", "values": [{"measurement": "enzymatic activity compared with wild type AGS1", "setting": "[9]", "value": "relatively little enzymatic activity"}, {"measurement": "enzymatic reaction overnight", "setting": "[9]; overnight", "value": "appeared to go to completion overnight"}, {"measurement": "complementation of ags1 mutant E. coli", "setting": "ags1 mutant E. coli", "value": "complement ags1 mutant E. coli"}, {"measurement": "speed of colony growth on 50 mM glyphosate", "setting": "E. coli cells [10]", "value": "grow more quickly"}]}, {"compound": "ags1m4: ags1 variant A151T, V214M, S276Y; SEQ ID NO:9/10", "values": [{"measurement": "speed of colony growth on 50 mM glyphosate", "setting": "E. coli cells [10]", "value": "grow more quickly"}]}, {"compound": "ags1m7: ags1 variant G168C, V214M, K395R; SEQ ID NO:13/14", "values": [{"measurement": "growth on glufosinate minimal M63+ agar media", "setting": "E. coli cells [8]", "value": "grow on 2, 10, 20, 50, and 100 mM glufosinate"}]}, {"compound": "ags1m11: ags1 variant G56A, V214E; SEQ ID NO:21/22", "values": [{"measurement": "growth on glufosinate minimal M63+ agar media", "setting": "E. coli cells [8]", "value": "grow on 2, 10, 20, 50, and 100 mM glufosinate"}, {"measurement": "speed of colony growth on 50 mM glyphosate", "setting": "E. coli cells [10]", "value": "grow more quickly"}]}, {"compound": "ags1m12: ags1 variant V207I, V214M; SEQ ID NO:23/24", "values": [{"measurement": "growth on glufosinate minimal M63+ agar media", "setting": "E. coli cells [8]", "value": "grow on 2, 10, 20, 50, and 100 mM glufosinate"}]}, {"compound": "ags1m14: ags1 variant V150M, D166N, V214M, G289S, A420V; SEQ ID NO:27/28", "values": [{"measurement": "growth on glufosinate minimal M63+ agar media", "setting": "E. coli cells [8]", "value": "grow on 2, 10, 20, 50, and 100 mM glufosinate"}]}, {"compound": "ags1m16: ags1 variant F81S, P185S, H212N, G218S, I303N; SEQ ID NO:31/32", "values": [{"measurement": "resistance conferred upon E. coli, compared among variants", "setting": "E. coli cells [8]", "value": "most resistance"}, {"measurement": "growth on 200 mM glufosinate plates", "setting": "E. coli cells [8]; M63+ plates, 200 mM glufosinate", "value": "ability to grow on 200 mM glufosinate plates"}, {"measurement": "Total protein, Avg.", "setting": "maize; average of nine ags1m16 events", "value": 16.8, "unit": "mg/g dry"}, {"measurement": "higher protein content than the control plants", "setting": "maize; average, versus control plants without ags1m16", "value": 24, "unit": "%"}]}]}
